Laboratory results published in US20090304692A1, “TRIAZINE COMPOUNDS AS PI3 KINASE AND MTOR INHIBITORS” (Wyeth, priority 2008, published 2009).
Read-outs that look alike come from different tables or passages of the source.

Columns and labels:
PI3K-γ = PI3K-γ (Homo sapiens, UniProt P48736); assay: PI3K-gamma fluorescence polarization assay; details: read-out: IC50 PI3Kγ
[1] = tested on: human prostate LNCap tumor cell line; assay: In vitro cell culture growth assay (MTS), LNCap; details: read-out: IC50 LNCap
PI3K-α = PI3K-α (Homo sapiens, UniProt P42336); assay: PI3K-alpha fluorescence polarization assay; details: read-out: IC50 PI3Kα
Human mTOR (FLAG-TOR) = Human mTOR (FLAG-TOR) (Homo sapiens, UniProt P42345); assay: mTOR kinase assay (DELFIA format, purified enzyme); type: biochemical; details: read-out: IC50 mTOR
[2] = tested on: human breast MDA-MB-361 tumor cell line; assay: In vitro cell culture growth assay (MTS), MDA-MB-361; type: cell-based; details: Homo sapiens, 72 h; MDA-MB-361 cells, MTS, three days after drug treatment; read-out: IC50 MDA-MB-361
[3] = tested on: human prostate PC3-mm2 tumor cell line; assay: In vitro cell culture growth assay (MTS), PC3-mm2; type: cell-based; details: Homo sapiens, PC3MM2, 72 h, PC3-mm2 cells, MTS, three days after drug treatment; read-out: IC50 PC3-mm2
[4] = MTS cell growth assay, three days after drug treatment

Chain of PI3K-α (P42336 whole entry, species assumed): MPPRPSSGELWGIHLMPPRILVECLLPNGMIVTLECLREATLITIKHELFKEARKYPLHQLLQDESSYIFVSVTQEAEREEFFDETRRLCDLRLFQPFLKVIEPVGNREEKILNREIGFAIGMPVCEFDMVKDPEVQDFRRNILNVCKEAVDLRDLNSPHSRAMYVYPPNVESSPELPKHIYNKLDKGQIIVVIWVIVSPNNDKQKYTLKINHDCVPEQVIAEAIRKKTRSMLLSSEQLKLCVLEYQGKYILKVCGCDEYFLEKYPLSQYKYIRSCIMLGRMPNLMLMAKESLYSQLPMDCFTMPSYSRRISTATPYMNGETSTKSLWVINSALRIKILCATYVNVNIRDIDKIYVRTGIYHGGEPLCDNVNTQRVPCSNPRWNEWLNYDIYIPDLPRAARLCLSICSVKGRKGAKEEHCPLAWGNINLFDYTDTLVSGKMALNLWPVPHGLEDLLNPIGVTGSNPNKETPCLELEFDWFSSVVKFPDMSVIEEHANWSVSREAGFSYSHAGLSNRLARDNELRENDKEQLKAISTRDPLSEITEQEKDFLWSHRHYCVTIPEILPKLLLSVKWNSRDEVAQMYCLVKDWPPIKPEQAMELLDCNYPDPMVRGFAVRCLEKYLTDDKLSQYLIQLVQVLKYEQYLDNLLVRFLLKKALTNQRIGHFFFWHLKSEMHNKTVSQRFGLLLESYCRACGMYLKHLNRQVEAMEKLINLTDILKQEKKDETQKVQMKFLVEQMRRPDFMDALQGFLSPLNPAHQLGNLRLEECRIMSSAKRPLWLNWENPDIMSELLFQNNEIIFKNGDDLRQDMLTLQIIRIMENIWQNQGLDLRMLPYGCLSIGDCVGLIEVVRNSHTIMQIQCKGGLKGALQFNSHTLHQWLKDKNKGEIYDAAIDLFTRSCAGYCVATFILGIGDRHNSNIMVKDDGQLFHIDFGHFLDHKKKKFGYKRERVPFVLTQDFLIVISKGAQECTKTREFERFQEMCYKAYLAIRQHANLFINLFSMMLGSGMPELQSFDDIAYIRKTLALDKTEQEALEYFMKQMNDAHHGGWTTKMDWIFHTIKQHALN
Chain of PI3K-α (P27986 whole entry partner, species assumed): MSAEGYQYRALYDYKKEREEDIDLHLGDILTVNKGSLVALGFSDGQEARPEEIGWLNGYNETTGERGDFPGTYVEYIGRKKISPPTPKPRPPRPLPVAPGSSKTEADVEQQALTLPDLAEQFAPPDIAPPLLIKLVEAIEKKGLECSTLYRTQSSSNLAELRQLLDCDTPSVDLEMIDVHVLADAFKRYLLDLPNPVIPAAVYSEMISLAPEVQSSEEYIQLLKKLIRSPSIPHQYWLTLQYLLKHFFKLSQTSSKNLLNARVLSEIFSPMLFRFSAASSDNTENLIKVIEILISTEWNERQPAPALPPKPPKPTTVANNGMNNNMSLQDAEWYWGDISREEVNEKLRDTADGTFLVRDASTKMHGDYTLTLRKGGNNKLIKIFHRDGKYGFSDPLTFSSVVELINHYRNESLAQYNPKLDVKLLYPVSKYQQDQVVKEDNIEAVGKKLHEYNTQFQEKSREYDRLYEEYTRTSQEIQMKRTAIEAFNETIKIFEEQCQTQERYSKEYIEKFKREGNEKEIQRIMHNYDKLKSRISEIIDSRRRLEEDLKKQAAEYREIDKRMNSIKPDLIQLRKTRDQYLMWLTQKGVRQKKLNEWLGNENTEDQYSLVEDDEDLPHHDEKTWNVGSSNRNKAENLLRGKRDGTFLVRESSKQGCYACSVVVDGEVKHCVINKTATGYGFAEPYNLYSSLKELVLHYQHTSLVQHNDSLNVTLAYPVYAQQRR
Chain of PI3K-γ (P48736 whole entry, species assumed): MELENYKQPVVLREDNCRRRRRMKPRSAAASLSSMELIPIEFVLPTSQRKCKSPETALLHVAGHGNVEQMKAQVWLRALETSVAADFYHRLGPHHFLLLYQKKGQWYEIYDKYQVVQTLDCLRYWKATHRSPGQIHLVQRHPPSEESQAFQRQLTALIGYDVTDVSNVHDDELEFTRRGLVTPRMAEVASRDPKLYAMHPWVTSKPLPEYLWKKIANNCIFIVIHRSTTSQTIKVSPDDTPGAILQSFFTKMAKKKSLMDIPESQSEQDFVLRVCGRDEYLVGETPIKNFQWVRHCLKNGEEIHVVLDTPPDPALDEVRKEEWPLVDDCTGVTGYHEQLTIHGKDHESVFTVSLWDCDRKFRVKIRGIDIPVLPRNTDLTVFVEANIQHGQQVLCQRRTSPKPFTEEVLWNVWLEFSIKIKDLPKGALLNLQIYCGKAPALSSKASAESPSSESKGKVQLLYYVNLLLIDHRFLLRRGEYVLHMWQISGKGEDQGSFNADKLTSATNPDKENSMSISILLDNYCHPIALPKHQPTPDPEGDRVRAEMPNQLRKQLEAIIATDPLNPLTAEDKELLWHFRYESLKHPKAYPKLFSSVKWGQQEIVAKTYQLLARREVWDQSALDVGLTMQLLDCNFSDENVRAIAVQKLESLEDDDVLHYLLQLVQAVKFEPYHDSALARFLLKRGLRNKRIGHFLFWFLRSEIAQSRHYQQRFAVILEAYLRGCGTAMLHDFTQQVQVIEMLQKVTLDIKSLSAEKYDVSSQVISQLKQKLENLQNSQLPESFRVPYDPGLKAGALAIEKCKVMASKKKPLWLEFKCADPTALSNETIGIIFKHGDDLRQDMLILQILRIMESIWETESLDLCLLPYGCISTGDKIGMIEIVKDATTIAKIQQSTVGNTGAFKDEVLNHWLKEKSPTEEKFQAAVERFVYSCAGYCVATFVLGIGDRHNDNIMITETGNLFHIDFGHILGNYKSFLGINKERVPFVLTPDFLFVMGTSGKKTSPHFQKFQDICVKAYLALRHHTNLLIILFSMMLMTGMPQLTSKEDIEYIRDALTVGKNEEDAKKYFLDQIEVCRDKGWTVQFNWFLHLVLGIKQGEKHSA
Chain of Human mTOR (FLAG-TOR) (P42345 1360-2549 limits assumed): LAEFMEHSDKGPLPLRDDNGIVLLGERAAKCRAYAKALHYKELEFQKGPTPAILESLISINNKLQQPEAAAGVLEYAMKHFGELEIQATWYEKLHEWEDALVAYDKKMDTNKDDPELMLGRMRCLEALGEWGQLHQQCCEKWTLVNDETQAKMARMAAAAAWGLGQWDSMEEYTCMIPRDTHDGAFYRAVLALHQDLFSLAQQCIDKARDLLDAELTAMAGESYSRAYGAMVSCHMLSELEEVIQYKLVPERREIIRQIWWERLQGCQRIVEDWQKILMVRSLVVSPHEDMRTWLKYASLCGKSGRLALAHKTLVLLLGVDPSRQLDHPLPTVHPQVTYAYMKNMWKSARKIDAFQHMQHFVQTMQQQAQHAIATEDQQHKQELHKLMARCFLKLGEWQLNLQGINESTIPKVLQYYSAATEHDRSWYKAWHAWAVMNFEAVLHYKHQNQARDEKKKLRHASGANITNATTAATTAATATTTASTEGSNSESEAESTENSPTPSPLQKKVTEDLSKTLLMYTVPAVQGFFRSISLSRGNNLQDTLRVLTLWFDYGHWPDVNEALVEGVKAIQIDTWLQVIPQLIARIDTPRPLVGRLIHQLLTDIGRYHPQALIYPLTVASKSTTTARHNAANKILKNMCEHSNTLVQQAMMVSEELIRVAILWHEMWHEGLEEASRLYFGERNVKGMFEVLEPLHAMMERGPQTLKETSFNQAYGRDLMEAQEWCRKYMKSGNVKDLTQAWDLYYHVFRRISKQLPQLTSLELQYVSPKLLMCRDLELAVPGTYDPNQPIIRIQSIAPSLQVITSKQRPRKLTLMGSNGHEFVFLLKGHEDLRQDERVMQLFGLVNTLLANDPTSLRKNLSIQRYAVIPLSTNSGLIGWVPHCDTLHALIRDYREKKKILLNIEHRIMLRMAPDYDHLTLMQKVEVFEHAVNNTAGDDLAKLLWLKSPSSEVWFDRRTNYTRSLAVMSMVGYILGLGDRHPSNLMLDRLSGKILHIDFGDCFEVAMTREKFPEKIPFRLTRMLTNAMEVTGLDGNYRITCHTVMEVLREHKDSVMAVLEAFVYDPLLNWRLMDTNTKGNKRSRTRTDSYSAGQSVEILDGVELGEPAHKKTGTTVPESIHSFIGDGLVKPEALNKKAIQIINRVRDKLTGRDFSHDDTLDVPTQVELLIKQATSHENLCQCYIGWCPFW

Row | IC50 (PI3K-γ) [µM] | IC50 (PI3K-α) [nM] | IC50 ([1]; Homo sapiens, LNCaP, 72 h) [nM] | IC50 (Human mTOR (FLAG-TOR)) [nM] | Molecule | other results
1 | – | – | 120 | 3.7 | O=C(Nc1ccncc1)Nc1ccc(-c2nc(N3CCN(C(=O)c4ccncc4)CC3)nc(N3CC4CCC(C3)O4)n2)cc1 [Example 113, 1-{4-[4-(4-isonicotinoylpiperazin-1-yl)-6-(8-oxa-3-azabicyclo[3.2.1]oct-3-yl)-1,3,5-triazin-2-yl]phenyl}-3-pyridin-4-ylurea] | –
2 | – | – | 680 | 43.5 | FC(F)c1nc2ccccc2n1-c1nc(N2CC3CCC(C2)O3)nc(N2CC3CCC(C2)O3)n1 [Example 138, 2-(difluoromethyl)-1-(4,6-di-8-oxa-3-azabicyclo[3.2.1]oct-3-yl-1,3,5-triazin-2-yl)-1H-benzimidazole] | –
3 | – | – | 180 | 74 | FC(F)c1nc2ccccc2n1-c1nc(N2CCOCC2)nc(N2CC3CCC(C2)O3)n1 [Example 139, 2-(difluoromethyl)-1-[4-morpholin-4-yl-6-(8-oxa-3-azabicyclo[3.2.1]oct-3-yl)-1,3,5-triazin-2-yl]-1H-benzimidazole] | –
4 | – | – | 1500 | – | O=C(Nc1ccncc1)Nc1ccc(-c2nc(OCCN3CCCCC3)nc(N3CC4CCC(C3)O4)n2)cc1 [Example 144, 1-{4-[4-(8-oxa-3-azabicyclo[3.2.1]oct-3-yl)-6-(2-piperidin-1-ylethoxy)-1,3,5-triazin-2-yl]phenyl}-3-pyridin-4-ylurea] | –
5 | – | – | 600 | 27 | CCN(CC)c1nc(-c2ccc(NC(=O)Nc3cccnc3)cc2)nc(N2CC3CCC(C2)O3)n1 [Example 194, 1-{4-[4-(diethylamino)-6-(8-oxa-3-azabicyclo[3.2.1]oct-3-yl)-1,3,5-triazin-2-yl]phenyl}-3-pyridin-3-ylurea] | –
6 | – | – | 700 | 5.5 | CCN(C)c1nc(-c2ccc(NC(=O)Nc3cccnc3)cc2)nc(N2CC3CCC(C2)O3)n1 [Example 202, 1-(4-{4-[ethyl(methyl)amino]-6-(8-oxa-3-azabicyclo[3.2.1]oct-3-yl)-1,3,5-triazin-2-yl}phenyl)-3-pyridin-3-ylurea] | –
7 | – | – | 78 | 1 | CCC(C)Nc1nc(-c2ccc(NC(=O)Nc3cccnc3)cc2)nc(N2CC3CCC(C2)O3)n1 (centres unmarked) [Example 203, 1-{4-[4-(sec-butylamino)-6-(8-oxa-3-azabicyclo[3.2.1]oct-3-yl)-1,3,5-triazin-2-yl]phenyl}-3-pyridin-3-ylurea] | –
8 | – | – | 6000 | 3.5 | O=C(Nc1ccc(-c2nc(NC(CO)CO)nc(N3CC4CCC(C3)O4)n2)cc1)Nc1cccnc1 [Example 204, 1-{4-[4-{[2-hydroxy-1-(hydroxymethyl)ethyl]amino}-6-(8-oxa-3-azabicyclo[3.2.1]oct-3-yl)-1,3,5-triazin-2-yl]phenyl}-3-pyridin-3-ylurea] | –
9 | – | – | 400 | 2 | O=C(Nc1ccc(-c2nc(N(CCO)CCO)nc(N3CC4CCC(C3)O4)n2)cc1)Nc1cccnc1 [Example 205, 1-(4-{4-[bis(2-hydroxyethyl)amino]-6-(8-oxa-3-azabicyclo[3.2.1]oct-3-yl)-1,3,5-triazin-2-yl}phenyl)-3-pyridin-3-ylurea] | –
10 | 9.53 | 4530 | 10000 | – | CNC(=O)Nc1ccc(-c2nc(N3CC4CCC(C3)O4)nc(N3CC4CNCC(C3)O4)n2)cc1 [Example 234, 1-methyl-3-{4-[4-(8-oxa-3-azabicyclo[3.2.1]oct-3-yl)-6-(9-oxa-3,7-diazabicyclo[3.3.1]non-3-yl)-1,3,5-triazin-2-yl]phenyl}urea] | –
11 | 4.11 | 3210 | 7900 | – | O=C(Nc1ccc(-c2nc(N3CC4CCC(C3)O4)nc(N3CC4CNCC(C3)O4)n2)cc1)Nc1cccnc1 [Example 235, 1-{4-[4-(8-oxa-3-azabicyclo[3.2.1]oct-3-yl)-6-(9-oxa-3,7-diazabicyclo[3.3.1]non-3-yl)-1,3,5-triazin-2-yl]phenyl}-3-pyridin-3-ylurea] | –
12 | 10 | 1820 | – | – | CN1CCN(c2ccc(NC(=O)Nc3ccc(-c4nc(N5C[C@H]6C[C@@H]5CO6)nc(N5C[C@H]6C[C@@H]5CO6)n4)cc3)cc2)CC1 [Example 314, 1-{4-[4,6-di-(1R,4R)-2-oxa-5-azabicyclo[2.2.1]hept-5-yl-1,3,5-triazin-2-yl]phenyl}-3-[4-(4-methylpiperazin-1-yl)phenyl]urea] | IC50 [1, 4]: 550 nM
13 | 6.83 | 216 | 120 | – | CNC(=O)Nc1ccc(-c2nc(Nc3ccc(N4CCN(C)CC4)cc3)nc(N3CC4CCC(C3)O4)n2)cc1 [Example 317, 1-methyl-3-{4-[4-{[4-(4-methylpiperazin-1-yl)phenyl]amino}-6-(8-oxa-3-azabicyclo[3.2.1]oct-3-yl)-1,3,5-triazin-2-yl]phenyl}urea] | –
14 | 0.679 | 15.5 | 1000 | – | CN1CCN(c2ccc(Nc3nc(-c4ccc(NC(=O)Nc5ccc(C(N)=O)cc5)cc4)nc(N4CC5CCC(C4)O5)n3)cc2)CC1 [Example 318, 4-[({4-[4-{[4-(4-methylpiperazin-1-yl)phenyl]amino}-6-(8-oxa-3-azabicyclo[3.2.1]oct-3-yl)-1,3,5-triazin-2-yl]phenyl}carbamoyl)amino]benzamide] | IC50 (PI3K-γ; listed as 334): 0.68 µM; IC50 (PI3K-α; listed as 334): 16 nM
15 | 0.024 | 1.9 | – | 0.765 | CN(C)CCNC(=O)c1ccc(NC(=O)Nc2ccc(-c3nc(N4CCOCC4)nc(N4CC5CCC4CO5)n3)cc2)cc1 (centres unmarked) [Example 815, N-[2-(dimethylamino)ethyl]-4-[({4-[4-morpholin-4-yl-6-(2-oxa-5-azabicyclo[2.2.2]oct-5-yl)-1,3,5-triazin-2-yl]phenyl}carbamoyl)amino]benzamide] | IC50 [2]: 3 nM; IC50 [3]: 24 nM
16 | 0.026 | 2.4 | – | 1.06 | CN(C)CCN(C)C(=O)c1ccc(NC(=O)Nc2ccc(-c3nc(N4CCOCC4)nc(N4CC5CCC4CO5)n3)cc2)cc1 (centres unmarked) [Example 816, N-[2-(dimethylamino)ethyl]-N-methyl-4-[({4-[4-morpholin-4-yl-6-(2-oxa-5-azabicyclo[2.2.2]oct-5-yl)-1,3,5-triazin-2-yl]phenyl}carbamoyl)amino]benzamide] | IC50 [2]: 2 nM; IC50 [3]: 11 nM

Row | Molecule | IC50 (PI3K-γ) [µM] | IC50 (PI3K-α) [nM] | IC50 ([1]; Homo sapiens, LNCaP, 72 h) [nM] | IC50 (Human mTOR (FLAG-TOR)) [nM] | other results
17 | 1-(4-{4-[(1-methylethyl)amino]-6-(8-oxa-3-azabicyclo[3.2.1]oct-3-yl)-1,3,5-triazin-2-yl}phenyl)-3-[6-(4-methylpiperazin-1-yl)pyridin-3-yl]urea [Example 216] | 7.03 | 521 | – | – | IC50 [1, 4]: 50 nM
18 | O=C(Nc1ccc(-c2nc(N3C4CCC3COC4)nc(N3C4CCC3COC4)n2)cc1)N1CCNCC1 [Example 286, N-[4-(4,6-di-3-oxa-8-azabicyclo[3.2.1]oct-8-yl-1,3,5-triazin-2-yl)phenyl]piperazine-1-carboxamide] | – | 4200 | 32000 | – | –
19 | O=C(Nc1ccncc1)Nc1ccc(-c2nc(N3C4CCC3COC4)nc(N3[C@H](CO)CC[C@@H]3CO)n2)cc1 [Example 347, 1-(4-{4-[(2R,5S)-2,5-bis(hydroxymethyl)pyrrolidin-1-yl]-6-(3-oxa-8-azabicyclo[3.2.1]oct-8-yl)-1,3,5-triazin-2-yl}phenyl)-3-pyridin-4-ylurea] | 8.44 | 796 | 9 | – | –
20 | CC(C)N1CCN(c2ccc(NC(=O)Nc3ccc(-c4nc(C5CCOCC5)nc(N5C6CCC5COC6)n4)cc3)cc2)CC1 [Example 435, 1-(4-(4-(3-oxa-8-azabicyclo[3.2.1]octan-8-yl)-6-(tetrahydro-2H-pyran-4-yl)-1,3,5-triazin-2-yl)phenyl)-3-(4-(4-isopropylpiperazin-1-yl)phenyl)urea] | 4.6 | – | 4 | – | –
21 | CC(C)N1CCN(C(=O)c2ccc(NC(=O)Nc3ccc(-c4nc(C5CCOCC5)nc(N5C6CCC5COC6)n4)cc3)cc2)CC1 [Example 439, 1-(4-(4-(3-oxa-8-azabicyclo[3.2.1]octan-8-yl)-6-(tetrahydro-2H-pyran-4-yl)-1,3,5-triazin-2-yl)phenyl)-3-(4-(4-isopropylpiperazine-1-carbonyl)phenyl)urea] | – | – | 1 | – | –
22 | O=C(Nc1ccncc1)Nc1ccc(-c2nc(N3CCOCC3)nc(N3C4COCC3[C@@H](O)C4)n2)cc1 (stereo partly drawn) [Example 818, 1-(4-{4-[(6S)-6-hydroxy-3-oxa-8-azabicyclo[3.2.1]oct-8-yl]-6-morpholin-4-yl-1,3,5-triazin-2-yl}phenyl)-3-pyridin-4-ylurea] | 0.185 | 37.7 | – | 2 | IC50 [2]: 129 nM; IC50 [3]: 237 nM
23 | O=C(Nc1ccncc1)Nc1ccc(-c2nc(N3CCOCC3)nc(N3C4COCC3C(OCc3ccccc3)C4)n2)cc1 (centres unmarked) [Example 819, 1-(4-{4-[6-(benzyloxy)-3-oxa-8-azabicyclo[3.2.1]oct-8-yl]-6-morpholin-4-yl-1,3,5-triazin-2-yl}phenyl)-3-pyridin-4-ylurea] | 0.357 | 44 | – | 17 | IC50 [2]: 442 nM; IC50 [3]: 768 nM
24 | CN1CCN(c2ccc(NC(=O)Nc3ccc(-c4nc(N5C6COCC5COC6)nc(N5C6COCC5COC6)n4)cc3)cc2)CC1 [Example 823, 1-[4-(4,6-di-3,7-dioxa-9-azabicyclo[3.3.1]non-9-yl-1,3,5-triazin-2-yl)phenyl]-3-[4-(4-methylpiperazin-1-yl)phenyl]urea] | 2.79 | 661 | 55 | – | –
